Experimental data reported in patent publication US20220332845A1, “INHIBITION OF MTHFD1L FOR USE IN HYPERTROPHIC HEART DISEASE AND HEART FAILURE” (GENOME BIOLOGICS UG, priority 2019, published 2022).

Assays:
NRCs [1] = experiment: ADP/ATP ratio in NRCs; assay type: cell-based, rat; settings: T3 15 nM for 6 days, scrLNA or miR27b-5p LNAs
Procedure: Mitochondria were isolated using the Mitochondria Isolation Kit for Cultured Cells (Abcam). Briefly, 1.2×10^6 NRCs were seeded per 6 cm dish and cells collected by scraping. After a freeze-thaw step to weaken the cell membrane, the cells were resuspended to a protein concentration of 5 mg/mL in Reagent A and incubated for 10 min on ice. The cells were homogenized with 30 strokes in a Dounce Homogenizer and centrifuged at 1000 g for 10 min at 4° C. The pellet was resuspended in the same volume of Reagent B than was used for Reagent A and rupturing and centrifugation was repeated. The supernatants after the two centrifugation steps were combined and centrifuged at 12000 g for 15 min at 4° C. Pellet was resuspended in 80 μL Reagent C supplemented with protease inhibitors and stored at −80° C. Mitochondrial ADP:ATP quantification was performed as recommended by the manufacturer (Abcam). 4×10^5 NRCs were seeded per well in a 3 cm dish and the assay was performed using the EnzyLight ADP/ATP Ratio Assay Kit (ELDT-100, Bioassay Systems) as recommended by the manufacturer. Luminescence was measured on a FLUOstar Omega plate reader (BMG).

NRCs [2] = experiment: [3H]leucine incorporation assay in NRCs; assay type: cell-based, rat; settings: T3 15 nM for 6 days, scrLNA or miR27b-5p LNAs
Procedure: [^3H]leucine incorporation assay was used to measure de novo protein synthesis as an indirect readout for cell growth (Fukuzawa et al. Hypertension 35, 1191-1196 (2000).). 4×10^5 cells were seeded per 3 cm dish. After 3 days, cells were serum-starved overnight. Next day, cells were cultured in leucine-free medium for 4h, followed by culturing in maintenance medium containing labeled […] (specific activity 30-60 Ci/mmol, ART0233, American Radiolabelled Chemicals) at a concentration of 0.5 μCi/mL for 20 h. The next day, cells were washed with PBS, trypsinized and the radioactivity was measured for 5 min in the liquid scintillation analyzer Tri-Carb 2800TR (Perkin Elmer). Cells were counted blinded with a Neubauer chamber after trypsinization and scintillation counts were normalized to absolute cell number.

[3] = tested on: primary neonatal rat cardiomyocytes (NRC); experiment: Immunofluorescent staining of NRCs: multinucleation and cell size; assay type: cell-based; settings: 10 μM ADP for 3 days
Procedure: Isolation of primary neonatal rat cardiomyocytes (NRC) was performed using the neonatal heart dissociation kit (130-098-373, Miltenyi Biotec) as recommended by the manufacturer. Isolated cells were pre-plated with plating medium (65% DMEM, 16% M199, 10% fetal calf serum (FCS), 5% horse serum (HS), 2% glutamine and 1% penicillin/streptomycin (P/S)) for 1.5 h to deplete of the fibroblasts. NRC were plated on Type-I Collagen-coated (Advanced Biomatrix) 3 cm dishes (Nunc) in plating medium. The plating medium was changed to maintenance medium (88% DMEM, 9% M199, 1% HS, 2% glutamine and 1% P/S) 24 h after isolation of NRCs. Cardiomyocytes were treated with 3,3′,5-Triiodo-L-thyronine (T3, T5516, Sigma Aldrich) for 6 days at a concentration of 15 nM. NRCs were stimulated with exogenous ADP (A2754, Sigma Aldrich) at a concentration of 10 μM for 3 days. NRC were randomly chosen for treatment the day after isolation.
Immunofluorescent stainings were performed as described previously (Krishnan et al. Cell Metab 9, 512-524 (2009)). After fixation of NRCs with 4% paraformaldehyde (PFA)/PBS, the cells were permeabilized and incubated with primary antibodies against sarcomeric α-actinin (A7811, Sigma Aldrich) and phospho-Histone H3 (Ser10) (05-817, Cell Signaling) diluted in 2% (v/v) HS for 1 h at RT. […] Cell size was quantified blinded using the software Image J (version 1.47).

Row | SMILES | ADP/ATP (NRCs [1]) | hypertrophy ([3H]leucine incorporation) (NRCs [2]) | cardiomyocyte hypertrophy by cell size quantification [3] | multinucleation (percentage of multinucleated cells) [3]
1 | N[C@@H](Cc1cc(I)c(Oc2ccc(O)c(I)c2)c(I)c1)C(=O)O [T3, 3,3′,5-Triiodo-L-thyronine] | increase | highly miR27b-dependent hypertrophy | – | –
2 | Nc1ncnc2c1ncn2[C@@H]1O[C@H](COP(=O)(O)OP(=O)(O)O)[C@@H](O)[C@H]1O [ADP] | – | – | cardiomyocyte hypertrophy | sufficiency to induce multinucleation
